{"source": "paper PMC5847527", "about": "“Identification of a novel 2-oxindole fluorinated derivative as in vivo antitumor agent for prostate cancer acting via AMPK activation” (Scientific Reports, 2018)", "key": {"AMPKα1 1–550 fragment": {"tested_on": "AMPKα1 1–550 fragment", "experiment": "Activity on isolated AMPKα1 1–550 fragment", "format": "biochemical, human", "conditions": "fragment containing the catalytic domain", "text": "We also assayed the effect of compound 8c on a fragment of the α1 isoform (aa 1–550) that contains the catalytic domain.\n(B) Activity of compound 8c on isolated AMPKα1 1–550 fragment. […] Data are the mean ± S.D. of four experiments. **p < 0.01 and ***p < 0.001 compared by the Student’s t-test."}, "AMPK": {"tested_on": "AMPK", "experiment": "AMPK and ACC phosphorylation by Western blot in LNCaP cells", "format": "cell-based, human", "conditions": "25 µM, 1 hour", "experimental": "Figure 2 Effect of 2-oxindole fluorinated derivatives on AMPK activity in prostate cancer cells. (A) PC-3, DU145 and LNCaP cells were treated with 25 µM of the selected 2-oxindole fluorinated derivatives for 1 hour. Levels of the phosphorylated AMPK (pAMPK), phosphorylated ACC (pACC) and their total forms were determined by Western blot. Upper panel, a representative Western blot of three different experiments. β-tubulin (β-Tub) serves as a loading control. […] Lower panels, densitometric analyses of bands represented as the mean of the ratio pAMPK/AMPK or pACC/ACC ± SD of three different experiments. *p < 0.05 compared with the controls by one-way ANOVA followed by Fisher’s LSD test; ^#p < 0.05 compared with 2-oxindole fluorinated derivates or with the AMPK activators AMP or A769662 by one-way ANOVA followed by Tukey test.\nSimilar results were obtained although AMPK stimulation by compound 8c was not so strong (Fig. 2A). […]\n(§1) Cells were lysed in Lysis buffer (50 mM Tris pH 7.4, 0.8 M NaCl, 5 mM MgCl2, 0.1% Triton X-100) containing Protease Inhibitor and Phosphatase inhibitor Cocktails (Roche, Basel, Switzerland). Protein concentrations were measured by BioRad™ protein assay kit (Richmond, CA, USA). […] Films were analyzed by densitometry. […]"}, "HIF-1A": {"tested_on": "HIF-1A", "experiment": "HIF-1A expression by Western blot in PC-3 and LNCaP cells", "format": "cell-based, human", "conditions": "25 µM", "experimental": "To further confirm the compound 8c-induced activation of AMPK, PC-3 and LNCaP cells were incubated with the compound for 1 h and 24 hours in the presence of the AMPK inhibitor Dorsomorphin. […] Accordingly, ACC phosphorylation was increased at 1 h and 24 h and prevented by Dorsomorphin in both cell lines. AMPK inhibits mTORC1 through phosphorylation of Raptor on two well-conserved serine residues (ser722 and ser792) inducing cell-cycle arrest in response to an energy stress. To further support the 8c-induced AMPK activation, we determined Raptor phosphorylation on Ser792 in prostate cells.\nFigure 5 AMPK activation by compound 8c in prostate cancer cells. (A) PC-3 and LNCaP cells were treated with vehicle, 25 µM compound 8c, 25 µM compound 8c + 5 μM Dorsomorphin (8c + D) or 5 μM Dorsomorphin (D), for 1 hour or 24 hours and levels of the phosphorylated AMPK (pAMPK), phosphorylated ACC (pACC), phosphorylated Raptor (pRaptor) forms and HIF1α were determined by Western blot. Upper panel, representative Western blot of three different experiments. β-tubulin (β-Tub) serves as a loading control. […] (B) Cell viability monitored by MTT assay in PC-3 and LNCaP cells treated with vehicle, 25 µM and 50 μM compound 8c alone or in the presence of 5 μM Dorsomorphin or transfected with control siRNA (siC) or α1AMPK-selective siRNA (siAMPK). […]"}, "[1]": {"tested_on": "cleaved Caspase 3 (17 kDa fragment)", "experiment": "Cleaved Caspase 3 level by Western blot in prostate cells", "format": "cell-based, human", "experimental": "(§2) Figure 4 Cell Cycle analysis in 8c-treated prostate cancer cells. (A) PC-3 and LNCaP cells were treated with compound 8c for 24 hours and cell cycle analysis was analyzed by flow cytometry using Propidium Iodide (PI). Percentage of cells in subG0, G1, S, and G2/M phases is indicated in the histogram. (B) Levels of Cyclin D1, p-p53, p53, p21 and cleaved Caspase 3 (17 kDa fragment) were determined by Western blot. Upper panel, representative Western blot of two different experiments. β-tubulin (β-Tub) serves as a loading control. […]\n(§3) Cyclin D1 activity is modulated by several inhibitors such as p21 which negatively regulate cell cycle progression by interacting with cyclin dependent kinases (cdks). […] To further study the role of compound 8c in cell cycle, we determined the expression of p21, p53 and the levels of cleaved caspase 3 in the prostate cells. P53 was only determined in LNCaP cells since PC-3 cells are p53-negative[40].\nas §1"}, "p53": {"tested_on": "p53", "experiment": "p53 and p-p53 level by Western blot in LNCaP cells", "format": "cell-based, human", "experimental": "as §2, §3, §1"}}, "data": [{"smiles": "O=C1Nc2ccccc2C1(F)Cc1ccc(-c2ccccc2)o1", "note": "(centres unmarked) [Compound 8c, 3-fluoro-3-((5-phenylfuran-2-yl)methyl)indolin-2-one]", "values": [{"measurement": "AMPK activity of α1 isoform fragment (aa 1–550)", "setting": "AMPKα1 1–550 fragment", "result": "no change in AMPK activity"}, {"measurement": "AMPK phosphorylation (pAMPK/AMPK)", "setting": "AMPK", "result": "notably activated AMPK"}, {"measurement": "expression of HIF-1A", "setting": "HIF-1A", "result": "expression of HIF-1A was decreased"}, {"measurement": "cleaved caspase 3 (17 kDa fragment)", "setting": "[1]", "result": "increase in cleaved caspase 3"}, {"measurement": "total and phosphorylated p53", "setting": "p53", "result": "increase in the total and phosphorylated forms of p53"}]}]}
